From PubChem BioAssay (NCI)
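The compound was tested at five concentrations on cells cultured in 96-well plates, with a 48-hour exposure period. At the TGI there is no net growth.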

Experiments:
Experiment in all cases: DTP human tumour cell line panel, 48 h
BT-549 breast = test system: BT-549 breast
SF-268 CNS = test system: SF-268 CNS
OVCAR-8 ovarian = test system: OVCAR-8 ovarian
CCRF-CEM leukemia = test system: CCRF-CEM leukemia
OVCAR-5 ovarian = test system: OVCAR-5 ovarian
SK-MEL-5 melanoma = test system: SK-MEL-5 melanoma
NCI-H226 lung = test system: NCI-H226 lung
A498 renal = test system: A498 renal
HCT-116 colon = test system: HCT-116 colon
K-562 leukemia = test system: K-562 leukemia
MOLT-4 leukemia = test system: MOLT-4 leukemia
KM12 colon = test system: KM12 colon
M14 melanoma = test system: M14 melanoma
NCI-H522 lung = test system: NCI-H522 lung
RPMI-8226 leukemia = test system: RPMI-8226 leukemia
CAKI-1 renal = test system: CAKI-1 renal

SMILES	TGI (BT-549 breast) [µM]	TGI (SF-268 CNS) [µM]	TGI (OVCAR-8 ovarian) [µM]	TGI (CCRF-CEM leukemia) [µM]	TGI (OVCAR-5 ovarian) [µM]	TGI (SK-MEL-5 melanoma) [µM]	TGI (NCI-H226 lung) [µM]	TGI (A498 renal) [µM]	TGI (HCT-116 colon) [µM]	TGI (K-562 leukemia) [µM]	TGI (MOLT-4 leukemia) [µM]	TGI (KM12 colon) [µM]	TGI (M14 melanoma) [µM]	TGI (NCI-H522 lung) [µM]	TGI (RPMI-8226 leukemia) [µM]	TGI (CAKI-1 renal) [µM]
CCOC(=O)C(NC(=O)CC)(Nc1ccc(S(=O)(=O)Nc2ccc(OC)nn2)cc1)C(F)(F)F (centres undefined)	> 100	> 100	> 100	> 100	> 100	> 100	> 100	> 100	> 100	> 100	> 100	> 100	> 100	> 100	> 100	> 100
O=C(NNS(=O)(=O)c1ccccc1)c1csc(NC(=S)NC2CCCCC2)n1	45.3	62.8	> 100	> 100	> 100	27.6	> 100	> 100	36	> 100	> 100	> 100	> 100	82.7	> 100	61.4
C[C@]12CC[C@H](O)CC1=CC[C@@H]1[C@@H]2CC[C@]2(C)C(=O)/C(=C/c3ccc([N+](=O)[O-])cc3)C[C@@H]12	57.5	21.5	12.3	> 100	50.9	43.5	10.2	30.4	62.3	> 100	> 100	> 100	> 100	30.6	> 100	> 100
O=C1O[C@H]2C3C4CCC(C4[C@@H]2I)[C@H]13 (some centres undefined)	> 100	> 100	> 100	> 100	> 100	> 100	> 100	> 100	> 100	> 100	> 100	> 100	> 100	> 100	> 100	> 100
O=C1C=C(O)c2c(O)ccc(O)c2C1=O	> 100	> 100	> 100	> 100	> 100	> 100	> 100	> 100	> 100	> 100	> 100	> 100	> 100	> 100	> 100	> 100
COc1cc(/C=C/C(=N\NC(=S)NN)c2sc(NNC(C)=O)nc2C)ccc1O	> 100	> 100	> 100	> 100	> 100	> 100	> 100	> 100	> 100	> 100	> 100	> 100	> 100	> 100	> 100	> 100
O=C1/C(=C/c2ccc(Cl)cc2)CCC1CN1CCOCC1 (centres undefined)	26	45.9	17.2	6.84	45.7	26.1	42.3	36	17.8	8.06	4.21	10.4	19.4	5.15	> 28.3	9.46
COc1cc(O)cc(O)c1C(=O)CC(Cl)(Cl)Cl	> 100	> 100	> 100	> 100	> 100	> 100	> 100	> 100	> 100	> 100	> 100	> 100	> 100	> 100	> 100	> 100
O=C1CCCCN1C(=O)c1ccc([N+](=O)[O-])cc1	> 100	> 100	> 100	> 100	> 100	> 100	> 100	> 100	> 100	> 100	> 100	> 100	> 100	> 100	> 100	> 100
COc1cc(S(=O)(=O)Nc2ccc(-c3csc(N4C(=O)C(C)SC4c4ccccc4)n3)cc2)ccc1Cl (centres undefined)	> 100	> 100	> 100	> 100	> 100	> 100	> 100	> 100	> 100	> 100	> 100	> 100	> 100	> 100	> 100	> 100
COc1ccc(Cn2c3ccc([N+](=O)[O-])cc3c(=O)n2Cc2ccccn2)cc1	> 100	> 100	> 100	> 100	> 100	83.9	> 100	> 100	> 100	> 100	> 100	> 100	> 100	> 100	> 100	> 100
CCOC1NC(/N=C/c2ccc(OC)cc2)=C(C#N)C1C#N (centres undefined)	73.5	> 100	> 100	82.2	> 100	> 100	> 100	> 100	> 100	> 100	> 100	> 100	> 100	47.8	> 100	> 100
Nc1ccccc1OCCCOc1ccccc1N	> 100	> 100	> 100	> 100	> 100	> 100	> 100	> 100	> 100	> 100	> 100	> 100	> 100	> 100	> 100	> 100
COc1ccc(N2N=NN(C(C)C)/C2=C(/Cl)c2nnnn2-c2ccc(OC)cc2)cc1	29.7	34.6	18	4.24	26.9	28.7	42.2	30.5	14.1	> 32.5	14.8	31.3	21.9	5.48	> 61.2	3.16
CCCCCCCCCCCCCCCC(=O)OCC1OC(OC)C(NC(=O)N(CCCl)N=O)C(O)C1O (centres undefined)	99.4	37.4	45.3	53.7	> 74	59.9	39.7	61.3	26.8	62.1	29.2	56.2	36.4	34.7	61.6	45.4
CC1C(C#N)(C#N)C(C#N)=C(N)C1(C)[N+](=O)[O-] (centres undefined)	> 100	> 100	> 100	> 100	> 100	> 100	> 100	> 100	> 100	> 100	> 100	> 100	> 100	> 100	> 100	> 100
CCN(CC)c1ccc2cc(C(N)=O)c(=Nc3ccc(F)cc3)oc2c1	> 100	> 100	> 100	> 100	> 100	> 100	> 100	> 100	> 100	> 100	> 100	> 100	> 100	> 100	> 100	> 100
Cc1ccc2c(=O)cc(Cc3csc4ccccc34)[nH]c2n1	66.4	> 100	> 100	> 100	> 100	32.4	85.8	> 100	> 100	> 100	> 100	> 100	> 100	53.3	> 100	> 100
O=C(N[C@H]1CCC[C@H]1C(=O)Nc1ccc(C(F)(F)F)cc1)OCc1ccccc1	> 100	> 100	> 100	> 100	> 100	> 100	> 100	> 100	> 100	> 100	> 100	> 100	> 100	> 100	> 100	> 100
